The text below walks through data of US20180194762A1 (Pharmacyclics LLC, priority 2017, published 2018).

SMILES strings stand for the structures.

Holding throughout (type): biochemical
One assay deals with T1, Btk (Homo sapiens, UniProt Q06187).
T1 construct: purified from insect cells as a full-length construct containing a N-terminal 6X-His tag; His6 (N); made in house; host or cells: insect cells (Method C)
Nature of the assay: Btk in vitro inhibitory activity (one of Method A TR-FRET, Method B electrophoretic mobility shift, Method C radiometric filter binding). Conditions: wild-type Btk; read-out: Btk-WT IC50. In a few lines:
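Three alternative formats were used. A radiometric filter-binding read used 8 nM full-length His-BTK with 0.2 mg/mL poly(Glu-Tyr) 4:1 (C); microfluidic separation of 1 μM FAM-peptide by 1 nM BTK gave IC50 from 12-point curves (B); TR-FRET at Km ATP, 0.5 nM Btk, gave Ki(app)-derived IC50 (A).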
(Mobility shift assays separate free from complexed probe on a gel.)

Another assay has as its target T2, panel of kinases (Homo sapiens, UniProt P51813).
T2 sequence (P51813 1-675): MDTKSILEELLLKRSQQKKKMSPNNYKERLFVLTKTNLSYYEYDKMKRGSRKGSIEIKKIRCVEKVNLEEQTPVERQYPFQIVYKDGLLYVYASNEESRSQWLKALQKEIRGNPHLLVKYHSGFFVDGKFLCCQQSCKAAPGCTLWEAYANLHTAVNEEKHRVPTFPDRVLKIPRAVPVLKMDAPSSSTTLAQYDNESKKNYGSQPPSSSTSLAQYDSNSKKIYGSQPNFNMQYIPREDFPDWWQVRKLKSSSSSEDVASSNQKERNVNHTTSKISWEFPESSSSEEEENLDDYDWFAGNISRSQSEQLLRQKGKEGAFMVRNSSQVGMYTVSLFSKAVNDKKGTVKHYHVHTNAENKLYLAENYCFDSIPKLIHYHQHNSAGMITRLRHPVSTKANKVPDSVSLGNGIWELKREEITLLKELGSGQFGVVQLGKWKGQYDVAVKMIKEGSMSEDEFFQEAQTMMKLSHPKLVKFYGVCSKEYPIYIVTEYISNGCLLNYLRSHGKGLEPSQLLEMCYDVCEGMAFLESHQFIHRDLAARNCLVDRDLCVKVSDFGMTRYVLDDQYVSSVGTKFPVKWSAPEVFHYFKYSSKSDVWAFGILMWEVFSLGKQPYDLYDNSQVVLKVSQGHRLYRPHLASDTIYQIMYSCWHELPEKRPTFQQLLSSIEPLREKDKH
The assay is described as follows: Inhibition of a panel of kinases (in vitro HotSpot kinase assay, 33P-ATP, 1 μM ATP), other kinases. Conditions: BMX wild-type, read-out: BMX-WT IC50. In a few lines:
(§1)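 At 1 μM ATP spiked with 33P-ATP, substrate phosphorylation by the purified enzymes gives the extent of inhibition.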

For another assay, the target named is T3, TEC (Homo sapiens, UniProt P42680).
T3 sequence (P42680 1-631): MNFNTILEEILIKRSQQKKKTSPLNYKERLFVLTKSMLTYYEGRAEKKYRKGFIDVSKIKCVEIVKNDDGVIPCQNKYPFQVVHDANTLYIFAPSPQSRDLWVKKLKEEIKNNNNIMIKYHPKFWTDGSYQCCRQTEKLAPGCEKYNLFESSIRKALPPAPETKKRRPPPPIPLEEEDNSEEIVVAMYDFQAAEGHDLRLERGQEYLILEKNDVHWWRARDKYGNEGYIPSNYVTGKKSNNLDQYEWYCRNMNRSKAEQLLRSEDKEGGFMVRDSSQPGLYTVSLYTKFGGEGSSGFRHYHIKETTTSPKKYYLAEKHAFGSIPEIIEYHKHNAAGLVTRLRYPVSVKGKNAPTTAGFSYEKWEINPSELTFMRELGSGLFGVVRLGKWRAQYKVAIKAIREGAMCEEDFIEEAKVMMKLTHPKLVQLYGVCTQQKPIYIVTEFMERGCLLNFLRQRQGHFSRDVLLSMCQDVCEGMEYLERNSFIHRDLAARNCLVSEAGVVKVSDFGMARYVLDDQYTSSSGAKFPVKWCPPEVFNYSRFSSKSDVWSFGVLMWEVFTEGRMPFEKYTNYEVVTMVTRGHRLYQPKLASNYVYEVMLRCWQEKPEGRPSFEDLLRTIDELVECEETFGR
The assay is described as follows: Inhibition of a panel of kinases (in vitro HotSpot kinase assay, 33P-ATP, 1 μM ATP). Conditions: for IC50: HotSpot kinase assay, 1 μM ATP; for TEC/Btk: ratio of TEC IC50 to Btk IC50 (selectivity). In a few lines:
as §1

T1 sequence (Q06187 whole entry): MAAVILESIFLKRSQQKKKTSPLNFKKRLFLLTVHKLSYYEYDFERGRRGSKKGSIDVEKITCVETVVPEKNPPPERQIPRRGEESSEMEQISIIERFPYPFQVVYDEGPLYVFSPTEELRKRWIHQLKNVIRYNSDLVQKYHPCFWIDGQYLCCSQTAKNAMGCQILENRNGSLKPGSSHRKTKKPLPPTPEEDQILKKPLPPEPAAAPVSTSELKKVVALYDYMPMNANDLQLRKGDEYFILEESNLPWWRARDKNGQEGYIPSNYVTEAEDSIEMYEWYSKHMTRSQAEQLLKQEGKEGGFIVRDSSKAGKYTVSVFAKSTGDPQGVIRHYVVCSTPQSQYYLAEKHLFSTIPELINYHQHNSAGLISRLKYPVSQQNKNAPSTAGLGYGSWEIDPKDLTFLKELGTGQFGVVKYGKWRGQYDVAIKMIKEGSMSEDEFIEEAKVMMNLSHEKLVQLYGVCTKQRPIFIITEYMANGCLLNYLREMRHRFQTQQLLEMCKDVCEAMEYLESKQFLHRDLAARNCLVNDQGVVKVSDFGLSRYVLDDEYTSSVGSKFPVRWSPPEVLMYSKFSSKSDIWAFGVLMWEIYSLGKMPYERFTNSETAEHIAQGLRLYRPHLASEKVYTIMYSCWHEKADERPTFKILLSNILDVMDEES

Regarding `CN(C)C(=O)N1CC[C@H](Nc2n[nH]c3nccc(-c4ccc(CNC(=O)c5ccc(C(C)(C)C)cc5)c(F)c4)c23)C1` [Example 114, (3S)-3-{[4-(4-{[(4-tert-butylphenyl)formamido]methyl}-3-fluorophenyl)-1H-pyrazolo[3,4-b]pyridin-3-yl]amino}-N,N-dimethylpyrrolidine-1-carboxamide], the values for the IC50 at Btk, at panel of kinases and at TEC were 93.3 nM, 2110 nM and 4100 nM, respectively. Further, the TEC/Btk at TEC came to 44.
Consider `CC(C)c1noc(C(=O)N[C@H](C)c2ccc(-c3ccnc4[nH]nc(N5CCS(=O)(=O)CC5)c34)cc2)n1` [Example 405, N-[(1R)-1-{4-[3-(1,1-dioxo-1λ^6-thiomorpholin-4-yl)-1H-pyrazolo[3,4-b]pyridin-4-yl]phenyl}ethyl]-3-(propan-2-yl)-1,2,4-oxadiazole-5-carboxamide], for which the values for the IC50 at Btk, on panel of kinases and against TEC were 31 nM, 3300 nM and 2380 nM, respectively.
As for `CN(C)C/C=C/C(=O)N1CC[C@@H](Nc2n[nH]c3nccc(-c4ccc(C5(NC(=O)c6noc(C(C)(C)C)n6)CC5)cc4)c23)C1` [Compound 29, (R,E)-5-(tert-butyl)-N-(1-(4-(3-((1-(4-(dimethylamino)but-2-enoyl)pyrrolidin-3-yl)amino)-1H-pyrazolo[3,4-b]pyridin-4-yl)phenyl)cyclopropyl)-1,2,4-oxadiazole-3-carboxamide], the IC50 on Btk was 11 nM; at panel of kinases, 595 nM; against TEC it was 964 nM. Moreover, the TEC/Btk at TEC came out at 88.
Consider `C=CC(=O)N1CCC(c2n[nH]c3nccc(-c4ccc(CNC(=O)c5noc(C(C)(C)C)n5)c(F)c4)c23)C1` (stereo not drawn) [Example 279, 5-tert-butyl-N-[(2-fluoro-4-{3-[1-(prop-2-enoyl)pyrrolidin-3-yl]-1H-pyrazolo[3,4-b]pyridin-4-yl}phenyl)methyl]-1,2,4-oxadiazole-3-carboxamide], for which the IC50 turned out to be 0.0922 nM on Btk, 8.95 nM on panel of kinases and 14.9 nM at TEC. Besides, the TEC/Btk at TEC stood at 162.
`CC1(C(=O)N2CC[C@@H](Nc3n[nH]c4nccc(-c5ccc(CNC(=O)c6ccc(C7CC7)cc6)c(F)c5)c34)C2)COC1` [Compound 41, 4-cyclopropyl-N-{[2-fluoro-4-(3-{[(3R)-1-(3-methyloxetane-3-carbonyl)pyrrolidin-3-yl]amino}-1H-pyrazolo[3,4-b]pyridin-4-yl)phenyl]methyl}benzamide]: the results for the IC50 on Btk, on panel of kinases and against TEC were 251 nM, more than 10000 nM and 3010 nM, respectively. Further, the TEC/Btk at TEC is recorded as 12.
As to `C[C@H]1CC[C@@H](Nc2n[nH]c3nccc(-c4ccc(CNC(=O)c5noc(C(C)(C)C)n5)c(F)c4)c23)CN1C(=O)NCC(F)(F)F` [Example 138, (2S,5R)-5-{[4-(4-{[(5-tert-butyl-1,2,4-oxadiazol-3-yl)formamido]methyl}-3-fluorophenyl)-1H-pyrazolo[3,4-b]pyridin-3-yl]amino}-2-methyl-N-(2,2,2-trifluoroethyl)piperidine-1-carboxamide], the IC50 at Btk, at panel of kinases and against TEC was more than 10000 nM each time.
On to `CC(C)c1nc(C(=O)NCc2ccc(-c3ccnc4[nH]nc(N5CC[C@@H](N)C5)c34)cc2F)co1` [Example 357, N-[(4-{3-[(3R)-3-aminopyrrolidin-1-yl]-1H-pyrazolo[3,4-b]pyridin-4-yl}-2-fluorophenyl)methyl]-2-(propan-2-yl)-1,3-oxazole-4-carboxamide], for which the IC50 stood at 31 nM at Btk, 1770 nM on panel of kinases and 4880 nM on TEC.
In the same order, the values of `C=CC(=O)N[C@@H]1CCN(c2n[nH]c3nccc(-c4ccc(CNC(=O)c5cc(C(C)(C)C#N)on5)c(F)c4)c23)C1` [Example 402, 5-(2-cyanopropan-2-yl)-N-{[2-fluoro-4-(3-{(3R)-3-[(prop-2-noyl)amino]pyrrolidin-1-yl}-1H-pyrazolo[3,4-b]pyridin-4-yl)phenyl]methyl}-1,2-oxazole-3-carboxamide] are 0.222 nM, 16.9 nM and 6.48 nM.
For `CC(C)c1noc(C(=O)N[C@H](C)c2ccc(-c3ccnc4[nH]nc(N5CCOCC5)c34)cc2)n1` [Example 389, N-[(1R)-1-{4-[3-(morpholin-4-yl)-1H-pyrazolo[3,4-b]pyridin-4-yl]phenyl}ethyl]-3-(propan-2-yl)-1,2,4-oxadiazole-5-carboxamide], the IC50 on Btk was 4.05 nM; on panel of kinases, 502 nM; at TEC it was 914 nM.
The like results for `CC(C)(C)c1ccc(C(=O)NC2(c3ccc(-c4ccnc5[nH]nc(N[C@H]6CC[C@H](O)CC6)c45)cc3)CC2)cc1` [Compound 22, 4-tert-butyl-N-{1-[4-(3-{[(1r,4r)-4-hydroxycyclohexyl]amino}-1H-pyrazolo[3,4-b]pyridin-4-yl)phenyl]cyclopropyl}benzamide] were, in that order, more than 10000 nM, 6470 nM and more than 10000 nM.
In the case of `CC(C)(C)c1ccc(C(=O)NCc2ccc(-c3ccnc4[nH]nc(N[C@@H]5CCNC5)c34)cc2F)cc1` [Compound 8, 4-tert-butyl-N-{[2-fluoro-4-(3-{[(3R)-pyrrolidin-3-yl]amino}-1H-pyrazolo[3,4-b]pyridin-4-yl)phenyl]methyl}benzamide], the results for the IC50 at Btk, on panel of kinases and on TEC were 144 nM, more than 10000 nM and more than 10000 nM, respectively.
`C=CC(=O)N1CC[C@@H](Nc2n[nH]c3nccc(-c4ccc(CNC(=O)c5coc(C(C)(C)C)n5)c(F)c4)c23)C1` [Example 295, 2-tert-butyl-N-{[2-fluoro-4-(3-{[(3R)-1-(prop-2-enoyl)pyrrolidin-3-yl]amino}-1H-pyrazolo[3,4-b]pyridin-4-yl)phenyl]methyl}-1,3-oxazole-4-carboxamide]: the IC50 on Btk stood at 0.171 nM; on panel of kinases it was 107 nM; against TEC, 45.5 nM.
On to `CC(C)(C)c1nc(C(=O)NCc2ccc(-c3ccnc4[nH]nc(N5CCC[C@H](C(=O)O)C5)c34)cc2F)no1` [Example 252, (3S)-1-[4-(4-{[(5-tert-butyl-1,2,4-oxadiazole-3-carbonyl)amino]methyl}-3-fluorophenyl)-1H-pyrazolo[3,4-b]pyridin-3-yl]piperidine-3-carboxylic acid], for which the IC50 on Btk was 0.511 nM; at panel of kinases, 529 nM; on TEC it was 386 nM. The TEC/Btk on TEC is recorded as 755.
Turning to `CN(C)C/C=C/C(=O)N[C@@H]1CCN(c2n[nH]c3nccc(-c4ccc(CNC(=O)c5cc(C(C)(C)C)on5)c(F)c4)c23)C1` [Example 309, 5-tert-butyl-N-[(4-{3-[(3R)-3-{[(2E)-4-(dimethylamino)but-2-enoyl]amino}pyrrolidin-1-yl]-1H-pyrazolo[3,4-b]pyridin-4-yl}-2-fluorophenyl)methyl]-1,2-oxazole-3-carboxamide], the IC50 at Btk was found to be 0.434 nM; on panel of kinases, 1010 nM; at TEC, 1070 nM.
As for `CN(C)C(=O)N1CCC[C@@H](Nc2n[nH]c3nccc(-c4ccc(CNC(=O)c5noc(C(C)(C)C)n5)c(F)c4)c23)C1` [Example 116, (3R)-3-{[4-(4-{[(5-tert-butyl-1,2,4-oxadiazol-3-yl) formamido]methyl}-3-fluorophenyl)-1H-pyrazolo[3,4-b]pyridin-3-yl]amino}-N,N-dimethylpiperidine-1-carboxamide], the IC50 was 11 nM at Btk, 3790 nM on panel of kinases and 4470 nM on TEC. Moreover, the TEC/Btk on TEC is listed as 406.

As usually defined, the IC50 is the concentration at which inhibition is half-maximal.
